Experimental data: patent US6673354B2, “Compositions and methods for treating papillomavirus-infected cells” (priority 1998, dated 2004)

T1: epitope tagged full length HPV16 E1 (EE16-E1) (human papillomavirus type 16, UniProt P03114 1-649)
T1 construct: range 1-649; also called EE-E1; HPV16 EE-E1
T1 sequence: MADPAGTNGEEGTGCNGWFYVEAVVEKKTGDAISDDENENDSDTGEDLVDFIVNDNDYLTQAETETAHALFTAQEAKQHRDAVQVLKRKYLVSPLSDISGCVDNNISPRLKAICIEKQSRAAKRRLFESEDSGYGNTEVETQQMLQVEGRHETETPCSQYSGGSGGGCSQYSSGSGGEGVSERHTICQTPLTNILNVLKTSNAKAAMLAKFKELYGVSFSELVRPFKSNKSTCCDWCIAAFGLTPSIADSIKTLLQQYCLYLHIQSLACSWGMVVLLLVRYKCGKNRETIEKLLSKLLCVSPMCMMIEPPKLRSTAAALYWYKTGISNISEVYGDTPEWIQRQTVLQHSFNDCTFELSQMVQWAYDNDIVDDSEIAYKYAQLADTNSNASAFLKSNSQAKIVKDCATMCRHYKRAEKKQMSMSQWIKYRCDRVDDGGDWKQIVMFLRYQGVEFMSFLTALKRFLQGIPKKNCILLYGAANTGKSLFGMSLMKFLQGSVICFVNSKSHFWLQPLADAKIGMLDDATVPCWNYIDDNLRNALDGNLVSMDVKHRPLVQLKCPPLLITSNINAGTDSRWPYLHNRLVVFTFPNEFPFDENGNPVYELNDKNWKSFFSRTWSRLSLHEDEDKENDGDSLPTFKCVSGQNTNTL


What was measured:
[1] = molecular target: T2, HPV11 E1/E2 interaction (Human papillomavirus 11, UniProt P04014); test: In vitro HPV E1-E2 binding assay, HPV11 E1 and HPV11 E2
T2 construct: made in house; host or cells: Hi-Five insect cells infected with recombinant baculoviruses (gift from Louise Chow); nuclear extracts
T2 sequence (P04014 whole entry): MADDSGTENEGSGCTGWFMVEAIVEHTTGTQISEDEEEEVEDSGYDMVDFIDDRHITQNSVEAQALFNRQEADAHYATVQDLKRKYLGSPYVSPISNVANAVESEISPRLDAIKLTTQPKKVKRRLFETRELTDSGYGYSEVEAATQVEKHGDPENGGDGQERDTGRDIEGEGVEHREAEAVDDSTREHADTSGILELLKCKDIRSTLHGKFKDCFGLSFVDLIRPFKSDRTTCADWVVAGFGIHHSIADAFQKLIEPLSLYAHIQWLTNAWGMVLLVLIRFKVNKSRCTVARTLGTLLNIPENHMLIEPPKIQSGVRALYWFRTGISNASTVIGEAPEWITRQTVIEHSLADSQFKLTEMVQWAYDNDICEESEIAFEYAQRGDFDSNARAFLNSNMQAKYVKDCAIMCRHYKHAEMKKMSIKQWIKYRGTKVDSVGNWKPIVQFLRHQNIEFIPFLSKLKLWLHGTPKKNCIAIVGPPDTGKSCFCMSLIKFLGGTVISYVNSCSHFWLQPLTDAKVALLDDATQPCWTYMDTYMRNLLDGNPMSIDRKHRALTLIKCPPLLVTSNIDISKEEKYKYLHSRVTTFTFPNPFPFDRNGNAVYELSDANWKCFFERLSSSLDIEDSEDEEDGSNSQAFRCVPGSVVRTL
Procedure: (§1) In vitro HPV E1-E2 binding assay. 300-500 ng protein from HPV16 or HPV11 EE-E1 expressing recombinant baculovirus infected cell nuclear extracts and 80-120 ng from HPV E2 baculovirus infected cell nuclear extracts were incubated in 500 μl NET-gel buffer (50 mM Tris-HCl pH7.5, 150 mM NaCl, 0.1% NP-40, 1 mM EDTA, 0.25% gelatin) at 4° C. for one hour. 1-2 μg anti-EE monoclonal antibody was added and incubated with shaking at 4° C. for one hour. Immune complexes were precipitated with protein-G agarose beads and washed twice for 30 minutes with ice cold NET-gel buffer. Precipitated proteins were detected by Western blot using appropriate primary antibodies and anti-rabbit IgG HRP or anti-mouse IgG HRP (Amersham). Membranes were blocked for one hour in TNET (10 mM Tris 7.5, 2.5 mM EDTA, 50 mM NaCl, 0.1% Tween-20) containing 4% (w/v) dry milk. Washes and antibody reactions were carried out in TNET, and proteins were visualized by chemiluminescence (Reneaissance ECL, NEN) and autoradiography. Bands were quantitated using the NIH image program.
(§2) Very little is known about the physical properties of domains within the papillomavirus E1 and E2 proteins that are involved in intermolecular recognition and association. […] The effect of the E2N-WP15 peptide on these interactions was also assessed. […]

[2] = tested on: HPV16 E2/HPV11 E1 dependent replication of the HPV11 origin; test: In vitro replication of the HPV11 origin with HPV11 E1 and HPV16 E2; format: biochemical
Procedure: (§3) In vitro replication reactions. In vitro replication reactions were essentially as described by Kuo et al. (18) in 25 μl reactions at 37° C. for indicated times. Standard reactions were for 2 hours, and were terminated by addition of 200 μl stop solution (20 mM Tris-HCl pH 7.5, 10 mM EDTA, 0.1% SDS, and 20 μg/ml RNase A). After incubation at 37° C. for 15 minutes, proteinase K was added (200 μg/ml) and incubation was continued 30 minutes. Samples were extracted with 250 μl phenol/chloroform/isoamyl alcohol (25:24:1), ethanol precipitated, washed with 70% ethanol, dried, resuspended in 20-30μl TE, and analyzed on a 0.8% agarose gel (TAE). The agarose gel was dried onto Hybond N+ membrane (Amersham), and replicated DNA was visualized by autoradiography. Bands were quantitated by Phosphorimager analysis. Replication templates were pKS7838-7905 (nt7838-7905/1-130) containing the HPV16 replication origin, and pUC7874-99 containing the HPV11 origin of replication (nt7874-7933/1-99). pUC7874-99 was a generously provided by Dr. Louise Chow.
The ability of the E2N-WP15 peptide to inhibit HPV11 E1 mediated replication in vitro was also tested. As shown in FIG. 7B (lanes 1-9), HPV11 E1 could cooperate with HPV16 E2 in supporting dose responsive in vitro replication of the HPV11 ori. […]

[3] = molecular target: T3, interaction between HPV16 E1 and E2 (Human papillomavirus type 16, UniProt P03114); test: In vitro HPV E1-E2 binding assay (co-immunoprecipitation / Western blot), HPV16 E1 and HPV16 E2
T3 construct: made in house; host or cells: Hi-Five insect cells infected with recombinant baculovirus (pVL1392); nuclear extracts
Procedure: as §1
Therefore, we reasoned that a peptide encompassing this domain of HPV16 E2 might inhibit interaction between HPV16 E1 and E2, thereby inhibiting HPV16 DNA replication (FIG. 5). In order to test this possibility, HPV16 E2 and epitope tagged full length HPV16 E1 (EE16-E1) proteins were expressed separately using baculovirus vectors. EE-E1 and associated E2 proteins were immunoprecipitated using an anti-EE epitope monoclonal antibody. Precipitated E2 was detected by Western blot using polyclonal antiserum raised to the DNA binding domain of HPV16 E2 (35). As shown in lane 2 of FIG. 6A, E2 co-immunoprecipitated with EE16-E1, but was not precipitated by the EE epitope antibody in the absence of EE16-E1 (lane 1). Peptides encompassing HPV16 E2 amino acids 29-51 (E2N-WP23) or residues 33-47 (E2N-WP15) of HPV16 E2 were then tested for inhibition of E1-E2 interaction. These peptide sequences were derived from the sequence of HPV16 E2, and were based on an alignment of amino terminal residues that are conserved among the papillomavirus E2 proteins (FIG. 5). […] Both the HPV16 E2 protein itself and the E2 derived peptides act specifically in these assays, since the E39A replication defective HPV16 E2 mutant bound only slightly to EE16-E1 (lanes 14). […] These peptides are named E2N-MP23 and E2N-MP15, respectively (see FIG. 5). […] We have previously shown that a domain spanning amino acids 421-647 of the HPV16 E1 carboxy terminus is necessary and sufficient for E2 interaction (45).

[4] = tested on: in vitro HPV16 DNA replication; test: In vitro replication of HPV16 DNA (293 cell extract, EE-E1, HPV16 E2); format: biochemical; conditions: 40 ng EE-E1 and 6 ng HPV16 E2, FIG. 7
Procedure: as §3
We sought to establish a system for the study of HPV16 DNA replication in vitro, and to determine whether specific interaction between HPV16 E1 and E2 was required for HPV16 DNA replication in this system. […] As has been documented for other papillomavirus E1 proteins, some replication was observed using relatively large amounts of E1 in the absence of E2 (lanes 2 through 7) (6, 16, 22, 33, 40, 48). […] Replication in this assay is ori-dependent, since the small amount of replication of the pKS plasmid lacking the HPV16 origin detected at high concentrations of EE-E1 (FIG. 3B, lanes 1-6) was not stimulated by E2 (FIG. 1B, lanes 7-12).
Since the E2N-WP23 and E2N-WP 15 peptides could inhibit interaction between […] E1 and E2, their ability to inhibit in vitro HPV16 DNA replication was also tested (FIGS. 7A and 7B).

[5] = molecular target: T4, interaction between HPV11 E1 and HPV16 E2 (Human papillomavirus 11, UniProt P04014); test: In vitro HPV E1-E2 binding assay, HPV11 E1 and HPV16 E2
T4 construct: made in house; host or cells: Hi-Five insect cells infected with recombinant baculovirus (HPV-11 EE-E1 virus a gift from Louise Chow); nuclear extracts
T4 sequence (P04014 whole entry): as above
Procedure: as §1, §2

[6] = molecular target: T1, epitope tagged full length HPV16 E1 …; test: co-immunoprecipitation with anti-EE antibody (data not shown); pair read as HPV16 E1 with HPV11 E2

Molecule | inhibition of HPV11 E1/E2 interaction [1] | inhibition of HPV16 E2/HPV11 E1 dependent replication of the HPV11 origin [2] | effect on E1-E2 interaction of peptide added at 5 minutes ([3]; 50 μM final concentration, added 5 minutes after start of binding reaction, terminated at 60 minutes) | effect on E1-E2 interaction of peptide added at or after 10 minutes ([3]; 50 μM final concentration, added at or after 10 minutes) | inhibition of HPV16 E1-E2 interaction ([3]; increasing peptide concentrations, FIG. 6A) | mode of inhibition of E1-E2 interaction ([3]; inhibition plotted as a function of substrate concentration (data not shown)) | inhibition of in vitro HPV16 DNA replication [4] | inhibition of interaction between HPV11 E1 and HPV16 E2 [5] | binding result [6]
WKHMRLECAIYYKAR [E2N-WP15] | effectively inhibited | approximately the same effectiveness as its inhibition of HPV16 E1/E2 mediated in vitro replication | significant inhibition of subsequent E1-E2 interaction | only a minimal effect on the stability of this E1-E2 interaction | comparable inhibition of E1-E2 interaction | competitive inhibition | could effectively inhibit in vitro replication | effectively inhibited | 
HPV11 E2 (other) MEAIAKRLDACQDQLLELYEENSIDIHKHIMHWKCIRLESVLLHKAKQMGLSHIGLQVVPPLTVSETKGHNAIEMQMHLESLAKTQYGVEPWTLQDTSYEMWLTPPKRCFKKQGNTVEVKFDGCEDNVMEYVVWTHIYLQDNDSWVKVTSSVDAKGIYYTCGQFKTYYVNFNKEAQKYGSTNHWEVCYGSTVICSPASVSSTVREVSIAEPTTYTPAQTTAPTVSACTTEDGVSAPPRKRARGPSTNNTLCVANIRSVDSTINNIVTDNYNKHQRRNNCHSAATPIVQLQGDSNCLKCFRYRLNDKYKHLFELASSTWHWASPEAPHKNAIVTLTYSSEEQRQQFLNSVKIPPTIRHKVGFMSLHLL |  |  |  |  |  |  |  |  | no binding
